Laboratory results published in publication PMC10999543, “Identification of kinase modulators as host-directed therapeutics against intracellular methicillin-resistant Staphylococcus aureus” (Frontiers in Cellular and Infection Microbiology, 2024).
Like-named read-outs stand apart in the source and are kept apart here.

Key:
intracellular MRSA = format: cell-based, Staphylococcus aureus; settings: for z-scoreMRSA+ mean: mean of 3 replicates; for z-scoreMRSA+ rep 1 / %GFP+ rep 1: replicate 1; for z-scoreMRSA+ rep 2 / %GFP+ rep 2: replicate 2; for z-scoreMRSA+ rep 3 / %GFP+ rep 3: replicate 3; as to %GFP+ rep 1: test concentration or dose not given here; as to %GFP+ rep 2: test concentration or dose not given here; as to %GFP+ rep 3: test concentration or dose not given here; as to effect: test concentration or dose not given here; as to z-scoreMRSA+ mean: test concentration or dose not given here; as to z-scoreMRSA+ rep 1: test concentration or dose not given here; as to z-scoreMRSA+ rep 2: test concentration or dose not given here; as to z-scoreMRSA+ rep 3: test concentration or dose not given here
How it was run: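 Values are z-scores: GFP-positive HeLa percentage and event count per well against plate statistics, minus the mean DMSO z-score. Wells deviating two-fold from controls were left out of plate means. Infection was at a mean MOI of 6.8, with an overnight compound exposure.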

HeLa cells = assay: Compound screen by flow cytometry: HeLa cell count as surrogate readout of cell viability (z-scoreHeLa); format: cell-based, human; settings: for z-scoreHeLa mean: mean of 3 replicates; for z-scoreHeLa rep 1 / cell count rep 1: replicate 1; for z-scoreHeLa rep 2 / cell count rep 2: replicate 2; for z-scoreHeLa rep 3 / cell count rep 3: replicate 3; as to all read-outs here: test concentration or dose not given here
How it was run: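 The viability surrogate was the count of fixed HeLa cells by flow cytometry, converted to z-scores against DMSO controls with values deviating two-fold excluded. Before counting, cells had been infected with MRSA for 1 h and cleared of extracellular bacteria with gentamicin. They were then exposed overnight to kinase inhibitors in triplicate.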

[1] = PKIS compound screen, Yes/No call
[2] = PKIS compound screen, Yes/No call (effect without cell death)
[3] = PKIS compounds raw data, MRSA-infected HeLa cells
[4] = PKIS compounds raw data, HeLa cell count
[5] = PKIS compound screen raw data, MRSA-infected HeLa cells
[6] = Yes/No: effect without cell death
[7] = compound screen, MRSA-infected HeLa cells
[8] = PKIS compound screen raw data, HeLa cell count
[9] = compound screen, HeLa cell count
[10] = PKIS compound screen, MRSA-infected HeLa cells
[11] = PKIS compound screen, HeLa cell count

SMILES | effect (intracellular MRSA; [1]) | hit (intracellular MRSA; [2]) | z-scoreMRSA+ mean (intracellular MRSA; PKIS compound screen) | z-scoreMRSA+ rep 1 (intracellular MRSA; PKIS compound screen) | z-scoreMRSA+ rep 2 (intracellular MRSA; PKIS compound screen) | z-scoreMRSA+ rep 3 (intracellular MRSA; PKIS compound screen) | %GFP+ rep 1 (intracellular MRSA; [3]) [%] | %GFP+ rep 2 (intracellular MRSA; [3]) [%] | %GFP+ rep 3 (intracellular MRSA; [3]) [%] | cell death (HeLa cells; [1]) | z-scoreHeLa mean (HeLa cells; PKIS compound screen) | z-scoreHeLa rep 1 (HeLa cells; PKIS compound screen) | z-scoreHeLa rep 2 (HeLa cells; PKIS compound screen) | z-scoreHeLa rep 3 (HeLa cells; PKIS compound screen) | cell count rep 1 (HeLa cells; [4]) | cell count rep 2 (HeLa cells; [4]) | cell count rep 3 (HeLa cells; [4]) | %GFP+ rep 1 (intracellular MRSA; [5]) [%] | %GFP+ rep 2 (intracellular MRSA; [5]) [%] | %GFP+ rep 3 (intracellular MRSA; [5]) [%] | further results
Cn1cc(-c2ccc3c(c2)CCN3C(=O)Cc2ccccc2Cl)c2c(N)ncnc21 [GSK2608885A] | No | No | 0.34 | 0.11 | 0.57 | 0.34 | 27.6 | 29.0 | 29.1 | No | -0.08 | -0.13 | 0.00891 | -0.13 | 5830 | 6021 | 5398 | – | – | – | –
Cc1ccc(C)c(NC(=O)NCCNc2ccnc(Nc3ccc(F)cc3)n2)c1 [GSK1379878A] | – | – | – | – | – | – | – | – | – | – | – | – | – | – | – | – | – | 23.2 | 23.5 | 22.5 | effect (intracellular MRSA; Yes/No call from z-scoreMRSA+): No; hit (intracellular MRSA; [6]): No; z-scoreMRSA+ mean (intracellular MRSA; [7]): 0.88; z-scoreMRSA+ rep 1 (intracellular MRSA; [7]): 1.18; z-scoreMRSA+ rep 2 (intracellular MRSA; [7]): 1.12; z-scoreMRSA+ rep 3 (intracellular MRSA; [7]): 0.35; cell count rep 1 (HeLa cells; [8]): 23015; cell count rep 2 (HeLa cells; [8]): 22114; cell count rep 3 (HeLa cells; [8]): 18414; cell death (HeLa cells; Yes/No call from z-scoreHeLa): No; z-scoreHeLa mean (HeLa cells; [9]): -0.62; z-scoreHeLa rep 1 (HeLa cells; [9]): -1.22; z-scoreHeLa rep 2 (HeLa cells; [9]): -0.54; z-scoreHeLa rep 3 (HeLa cells; [9]): -0.10
Cc1n[nH]c2cc(Nc3ccnc(Nc4cccc(CN5CCOCC5)c4)n3)ccc12 [GW682569X] | – | – | – | – | – | – | 15.4 | 15.0 | 13.7 | – | – | – | – | – | 2071 | 1754 | 4807 | – | – | – | effect (intracellular MRSA; Yes/No call from z-scoreMRSA+): No; hit (intracellular MRSA; [6]): No; z-scoreMRSA+ mean (intracellular MRSA; [7]): 0.19; z-scoreMRSA+ rep 1 (intracellular MRSA; [7]): 0.71; z-scoreMRSA+ rep 2 (intracellular MRSA; [7]): 0.50; z-scoreMRSA+ rep 3 (intracellular MRSA; [7]): -0.65; cell death (HeLa cells; Yes/No call from z-scoreHeLa): No; z-scoreHeLa mean (HeLa cells; [9]): -1.79; z-scoreHeLa rep 1 (HeLa cells; [9]): -2.45; z-scoreHeLa rep 2 (HeLa cells; [9]): -1.90; z-scoreHeLa rep 3 (HeLa cells; [9]): -1.03
O=C(Nc1ccccc1F)NC1CCN(c2ccnc(Nc3ccc(F)cc3)n2)C1 (centres unmarked) [GSK1379722A] | No | No | 1.11 | 1.04 | 1.28 | 1.01 | 32.4 | 32.7 | 32.7 | No | 0.96 | 1.17 | 0.61 | 1.09 | 7997 | 6922 | 7324 | 20.2 | 23.8 | 25.6 | z-scoreMRSA+ mean (intracellular MRSA; [10]): 1.37; z-scoreMRSA+ rep 1 (intracellular MRSA; [10]): 0.74; z-scoreMRSA+ rep 2 (intracellular MRSA; [10]): 1.59; z-scoreMRSA+ rep 3 (intracellular MRSA; [10]): 1.77; effect (intracellular MRSA; PKIS compound screen, Yes/No call on z-scoreMRSA+): No; cell count rep 1 (HeLa cells; [8]): 32994; cell count rep 2 (HeLa cells; [8]): 39130; cell count rep 3 (HeLa cells; [8]): 43503; z-scoreHeLa mean (HeLa cells; [11]): 1.08; z-scoreHeLa rep 1 (HeLa cells; [11]): 1.95; z-scoreHeLa rep 2 (HeLa cells; [11]): 0.81; z-scoreHeLa rep 3 (HeLa cells; [11]): 0.47; cell death (HeLa cells; PKIS compound screen, Yes/No call on z-scoreHeLa): No
COc1cccc(C2=C(Nc3ccc(Cl)c(C(=O)O)c3)C(=O)NC2=O)c1 [SB-390769] | No | No | 0.47 | -0.05 | 0.72 | 0.73 | 26.8 | 29.8 | 31.2 | No | 1.73 | 0.80 | 1.87 | 2.53 | 7373 | 8825 | 9583 | – | – | – | –
